Results from ChEMBL document CHEMBL5465560, “Selectivity Literature for EUbOPEN Chemogenomic Library” (2024).

What was measured:
[1] = target: Casein kinase I isoform delta (Homo sapiens, UniProt P48730); assay: Selectivity interaction (Kinase panel (DSF assay)) EUB0001558a CSNK1D
[2] = system: Epidermal growth factor receptor (Homo sapiens), P00533 [UNDEFINED MUTATION]; assay: Selectivity interaction (KinomeScan (DiscoverX)) EUB0000229b EGFR; conditions: at 1 µM
[3] = target: Serine/threonine-protein kinase N2 (Homo sapiens, UniProt Q16513); assay: Selectivity interaction (Upstate Kinase Profiler service (Millipore)) EUB0000056c PKN2; conditions: at 1 µM
Sequence of Serine/threonine-protein kinase N2 (Q16513 whole entry, looked up): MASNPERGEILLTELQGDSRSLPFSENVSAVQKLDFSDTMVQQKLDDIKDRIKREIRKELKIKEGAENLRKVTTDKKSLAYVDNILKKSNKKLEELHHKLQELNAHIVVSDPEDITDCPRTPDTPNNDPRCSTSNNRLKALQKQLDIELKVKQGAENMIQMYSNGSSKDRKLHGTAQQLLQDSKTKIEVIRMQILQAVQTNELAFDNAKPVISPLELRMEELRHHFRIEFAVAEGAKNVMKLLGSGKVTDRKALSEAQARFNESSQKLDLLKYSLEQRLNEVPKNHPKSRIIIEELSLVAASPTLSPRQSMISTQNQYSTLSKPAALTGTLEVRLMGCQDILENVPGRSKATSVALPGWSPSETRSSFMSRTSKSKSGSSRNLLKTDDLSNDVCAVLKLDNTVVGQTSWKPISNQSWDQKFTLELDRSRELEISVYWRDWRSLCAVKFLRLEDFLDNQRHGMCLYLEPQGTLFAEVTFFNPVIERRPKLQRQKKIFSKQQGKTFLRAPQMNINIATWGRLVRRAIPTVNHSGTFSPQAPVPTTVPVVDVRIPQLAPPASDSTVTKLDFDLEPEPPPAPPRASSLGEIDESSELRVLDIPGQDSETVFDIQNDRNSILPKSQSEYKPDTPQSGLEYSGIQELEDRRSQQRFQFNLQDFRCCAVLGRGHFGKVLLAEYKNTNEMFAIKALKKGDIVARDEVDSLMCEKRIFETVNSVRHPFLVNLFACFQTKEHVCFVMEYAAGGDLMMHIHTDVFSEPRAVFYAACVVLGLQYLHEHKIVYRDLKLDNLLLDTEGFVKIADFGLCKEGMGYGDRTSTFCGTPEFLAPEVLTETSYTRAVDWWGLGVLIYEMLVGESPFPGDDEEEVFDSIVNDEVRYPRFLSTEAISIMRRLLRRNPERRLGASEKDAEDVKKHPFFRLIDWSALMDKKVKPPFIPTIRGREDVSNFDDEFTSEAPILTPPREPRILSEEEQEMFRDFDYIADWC

[4] = target: T1, Mitogen-activated protein kinase kinase kinase 3 (Homo sapiens) (UniProt Q99759); assay: Selectivity interaction (KinomeScan (DiscoverX)) EUB0000655a MAP3K3; conditions: at 10 µM
T1 sequence (whole entry): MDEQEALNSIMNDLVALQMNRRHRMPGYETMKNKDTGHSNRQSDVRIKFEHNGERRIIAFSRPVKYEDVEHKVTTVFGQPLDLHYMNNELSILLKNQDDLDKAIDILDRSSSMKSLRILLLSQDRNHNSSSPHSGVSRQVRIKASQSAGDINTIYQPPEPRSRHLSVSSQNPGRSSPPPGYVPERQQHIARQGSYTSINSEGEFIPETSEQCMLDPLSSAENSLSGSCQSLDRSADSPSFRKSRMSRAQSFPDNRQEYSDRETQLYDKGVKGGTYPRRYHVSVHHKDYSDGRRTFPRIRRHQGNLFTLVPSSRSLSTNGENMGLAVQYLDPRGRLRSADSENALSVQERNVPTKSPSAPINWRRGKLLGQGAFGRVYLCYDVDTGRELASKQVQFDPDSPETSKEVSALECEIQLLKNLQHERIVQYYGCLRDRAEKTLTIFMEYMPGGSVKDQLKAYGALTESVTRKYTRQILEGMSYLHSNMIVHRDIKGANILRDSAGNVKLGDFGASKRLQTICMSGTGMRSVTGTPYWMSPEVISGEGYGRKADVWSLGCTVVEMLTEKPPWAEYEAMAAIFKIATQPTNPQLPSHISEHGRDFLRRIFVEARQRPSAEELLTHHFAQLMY

[5] = target: T2, Phosphorylase b kinase gamma catalytic chain, liver/testis isoform (Homo sapiens) (UniProt P15735); assay: Selectivity interaction (ProQinase) EUB0000171b PHKG2
T2 sequence (whole entry): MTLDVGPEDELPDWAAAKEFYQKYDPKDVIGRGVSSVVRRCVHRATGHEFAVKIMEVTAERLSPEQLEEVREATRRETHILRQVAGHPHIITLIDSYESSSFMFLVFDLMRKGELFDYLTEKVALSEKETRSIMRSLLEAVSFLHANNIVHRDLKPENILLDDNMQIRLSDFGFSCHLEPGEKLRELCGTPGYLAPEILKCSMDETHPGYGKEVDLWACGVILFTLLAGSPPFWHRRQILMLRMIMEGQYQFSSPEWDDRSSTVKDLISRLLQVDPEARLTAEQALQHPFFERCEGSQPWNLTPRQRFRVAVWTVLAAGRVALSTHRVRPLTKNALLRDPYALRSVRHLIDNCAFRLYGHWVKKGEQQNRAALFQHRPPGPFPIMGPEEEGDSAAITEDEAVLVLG

[6] = target: CDK3/Cyclin E (Homo sapiens) (UniProt P24864+Q00526); assay: Selectivity interaction (ProQinase) EUB0000171b CDK3; assay type: protein-complex assay
Sequence of CDK3/Cyclin E (Homo sapiens) (P24864 whole entry, looked up): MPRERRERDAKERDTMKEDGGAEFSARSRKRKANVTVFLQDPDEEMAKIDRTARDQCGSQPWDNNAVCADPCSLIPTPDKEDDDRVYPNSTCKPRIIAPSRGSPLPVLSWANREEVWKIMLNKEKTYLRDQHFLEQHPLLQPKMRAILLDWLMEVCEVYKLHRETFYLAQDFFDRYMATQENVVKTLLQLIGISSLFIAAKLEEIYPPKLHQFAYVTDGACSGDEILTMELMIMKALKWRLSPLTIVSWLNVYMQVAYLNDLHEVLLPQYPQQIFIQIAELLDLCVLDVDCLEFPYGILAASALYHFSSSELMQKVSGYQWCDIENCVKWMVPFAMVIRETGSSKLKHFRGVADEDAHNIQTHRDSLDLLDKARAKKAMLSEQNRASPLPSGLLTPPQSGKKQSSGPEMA
Sequence of CDK3/Cyclin E (Homo sapiens) (Q00526 whole entry, looked up): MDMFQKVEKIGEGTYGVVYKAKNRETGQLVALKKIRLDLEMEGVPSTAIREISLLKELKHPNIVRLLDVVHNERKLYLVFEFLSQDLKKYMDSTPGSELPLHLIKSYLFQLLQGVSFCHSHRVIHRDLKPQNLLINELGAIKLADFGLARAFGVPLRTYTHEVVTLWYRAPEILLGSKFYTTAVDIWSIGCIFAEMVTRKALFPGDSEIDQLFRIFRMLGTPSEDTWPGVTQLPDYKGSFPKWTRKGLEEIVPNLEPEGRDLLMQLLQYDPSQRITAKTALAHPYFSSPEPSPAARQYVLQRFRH

[7] = target: T3, Serine/threonine-protein kinase 26 (Homo sapiens, UniProt Q9P289); assay: Selectivity interaction (Kinase panel (DSF assay)) EUB0001559a STK26
T3 sequence (Q9P289 2-416 limits assumed): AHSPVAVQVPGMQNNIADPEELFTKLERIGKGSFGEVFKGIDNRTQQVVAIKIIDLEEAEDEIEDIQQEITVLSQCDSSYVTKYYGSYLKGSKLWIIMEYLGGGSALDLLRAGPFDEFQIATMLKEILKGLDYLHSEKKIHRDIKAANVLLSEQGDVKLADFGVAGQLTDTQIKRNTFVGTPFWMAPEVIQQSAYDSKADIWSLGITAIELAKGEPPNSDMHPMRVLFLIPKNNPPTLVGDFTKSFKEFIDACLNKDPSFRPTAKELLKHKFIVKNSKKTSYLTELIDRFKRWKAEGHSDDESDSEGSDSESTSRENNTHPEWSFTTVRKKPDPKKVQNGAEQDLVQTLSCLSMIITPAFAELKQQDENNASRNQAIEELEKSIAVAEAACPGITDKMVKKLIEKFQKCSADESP

[8] = target: Cyclin-dependent kinase 11B (Homo sapiens) (UniProt P21127); assay: Selectivity interaction (KinomeScan (DiscoverX)) EUB0000666a CDK11B; conditions: at 10 µM
Sequence of Cyclin-dependent kinase 11B (Homo sapiens) (P21127 whole entry): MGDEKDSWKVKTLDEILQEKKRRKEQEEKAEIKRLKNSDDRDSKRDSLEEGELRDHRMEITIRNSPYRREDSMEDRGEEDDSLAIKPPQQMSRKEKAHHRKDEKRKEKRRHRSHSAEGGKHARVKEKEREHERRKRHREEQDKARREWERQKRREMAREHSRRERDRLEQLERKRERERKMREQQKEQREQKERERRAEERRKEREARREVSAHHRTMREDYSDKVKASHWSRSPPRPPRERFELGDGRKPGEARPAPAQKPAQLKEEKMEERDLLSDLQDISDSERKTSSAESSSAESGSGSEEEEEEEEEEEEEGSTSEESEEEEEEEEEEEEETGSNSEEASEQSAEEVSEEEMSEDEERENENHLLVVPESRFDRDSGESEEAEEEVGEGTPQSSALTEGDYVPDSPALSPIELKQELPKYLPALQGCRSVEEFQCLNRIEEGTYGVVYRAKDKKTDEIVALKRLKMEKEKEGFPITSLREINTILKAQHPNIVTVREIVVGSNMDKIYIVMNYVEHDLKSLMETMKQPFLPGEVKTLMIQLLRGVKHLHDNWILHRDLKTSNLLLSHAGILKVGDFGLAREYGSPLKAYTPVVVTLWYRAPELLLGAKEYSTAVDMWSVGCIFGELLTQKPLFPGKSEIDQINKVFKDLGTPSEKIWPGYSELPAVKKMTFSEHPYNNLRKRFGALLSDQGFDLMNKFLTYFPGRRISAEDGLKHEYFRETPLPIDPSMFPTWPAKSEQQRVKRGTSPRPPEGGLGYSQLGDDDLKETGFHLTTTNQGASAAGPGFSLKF

[9] = target: Mast/stem cell growth factor receptor Kit (Homo sapiens, UniProt P10721); conditions: at 10 µM
[10] = target: 5'-AMP-activated protein kinase catalytic subunit alpha-2 (Homo sapiens) (UniProt P54646); assay: Selectivity interaction (ActivX KiNativ screen (kinase selectivity in THP-1 cell lysates)) EUB0000639a PRKAA2; assay type: subcellular; conditions: lysate, at 5 µM
Sequence of 5'-AMP-activated protein kinase catalytic subunit alpha-2 (Homo sapiens) (P54646 whole entry, looked up): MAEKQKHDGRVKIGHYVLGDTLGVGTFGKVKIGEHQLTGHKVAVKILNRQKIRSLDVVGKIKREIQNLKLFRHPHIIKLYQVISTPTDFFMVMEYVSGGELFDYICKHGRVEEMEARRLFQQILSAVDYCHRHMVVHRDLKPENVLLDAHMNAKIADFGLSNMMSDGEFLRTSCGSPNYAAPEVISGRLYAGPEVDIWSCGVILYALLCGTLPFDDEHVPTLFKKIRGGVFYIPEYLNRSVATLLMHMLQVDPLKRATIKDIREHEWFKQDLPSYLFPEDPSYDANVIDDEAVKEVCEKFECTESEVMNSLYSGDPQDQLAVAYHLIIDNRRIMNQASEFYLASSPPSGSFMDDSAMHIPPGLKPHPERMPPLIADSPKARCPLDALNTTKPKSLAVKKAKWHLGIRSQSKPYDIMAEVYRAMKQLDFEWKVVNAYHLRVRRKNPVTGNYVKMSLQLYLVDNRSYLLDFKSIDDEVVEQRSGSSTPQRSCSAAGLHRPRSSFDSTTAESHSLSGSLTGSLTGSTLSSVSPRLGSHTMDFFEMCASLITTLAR

[11] = target: Dual specificity mitogen-activated protein kinase kinase 1 (Homo sapiens, UniProt Q02750); assay: Selectivity interaction (KinomeScan (DiscoverX)) EUB0000695a MAP2K1; conditions: at 100 nM
Sequence of Dual specificity mitogen-activated protein kinase kinase 1 (Q02750 whole entry): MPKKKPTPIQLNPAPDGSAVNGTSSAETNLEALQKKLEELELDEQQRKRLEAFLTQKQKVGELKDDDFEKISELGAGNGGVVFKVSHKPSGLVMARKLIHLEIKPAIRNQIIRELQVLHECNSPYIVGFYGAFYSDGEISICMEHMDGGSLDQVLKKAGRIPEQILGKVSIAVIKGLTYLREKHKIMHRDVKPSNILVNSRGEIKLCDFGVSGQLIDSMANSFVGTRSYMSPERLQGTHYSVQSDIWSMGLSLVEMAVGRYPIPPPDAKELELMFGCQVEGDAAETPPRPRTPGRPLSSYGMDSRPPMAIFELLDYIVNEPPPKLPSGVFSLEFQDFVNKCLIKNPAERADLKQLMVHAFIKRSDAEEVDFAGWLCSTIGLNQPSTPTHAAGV

[12] = target: Bone morphogenetic protein receptor type-1B (Homo sapiens, UniProt O00238); assay: Selectivity interaction (KinomeScan (DiscoverX)) EUB0000595a BMPR1B; conditions: at 10 µM
Sequence of Bone morphogenetic protein receptor type-1B (O00238 whole entry, canonical isoform): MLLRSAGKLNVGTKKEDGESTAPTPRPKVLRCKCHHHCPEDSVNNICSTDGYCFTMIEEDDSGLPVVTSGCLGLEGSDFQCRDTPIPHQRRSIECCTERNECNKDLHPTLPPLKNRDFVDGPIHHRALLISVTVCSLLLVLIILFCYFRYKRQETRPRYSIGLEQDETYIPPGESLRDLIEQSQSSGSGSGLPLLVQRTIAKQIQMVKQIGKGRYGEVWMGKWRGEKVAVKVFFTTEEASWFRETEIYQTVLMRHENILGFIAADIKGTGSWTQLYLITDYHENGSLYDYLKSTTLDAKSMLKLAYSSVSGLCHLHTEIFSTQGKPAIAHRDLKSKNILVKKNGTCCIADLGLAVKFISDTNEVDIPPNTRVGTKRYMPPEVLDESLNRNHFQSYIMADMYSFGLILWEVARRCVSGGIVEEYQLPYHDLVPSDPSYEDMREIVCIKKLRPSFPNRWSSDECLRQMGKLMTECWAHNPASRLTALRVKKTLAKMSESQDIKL

[13] = target: T4, Casein kinase I isoform alpha-like (Homo sapiens) (UniProt Q8N752); assay: Selectivity interaction (KinomeScan (DiscoverX)) EUB0000618a CSNK1A1L; conditions: at 10 µM
T4 sequence (whole entry): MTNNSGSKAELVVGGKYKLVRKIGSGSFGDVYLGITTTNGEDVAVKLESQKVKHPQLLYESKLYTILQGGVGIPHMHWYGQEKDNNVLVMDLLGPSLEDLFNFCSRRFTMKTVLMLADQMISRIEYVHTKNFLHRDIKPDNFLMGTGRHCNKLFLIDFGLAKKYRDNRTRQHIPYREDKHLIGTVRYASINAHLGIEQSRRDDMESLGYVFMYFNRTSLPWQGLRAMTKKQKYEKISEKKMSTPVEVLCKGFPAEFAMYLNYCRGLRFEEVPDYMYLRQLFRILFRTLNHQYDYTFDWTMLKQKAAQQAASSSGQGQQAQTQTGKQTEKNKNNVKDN

[14] = target: T5, Serine/threonine-protein kinase ULK3 (Homo sapiens) (UniProt Q6PHR2); assay: Selectivity interaction (KinomeScan (DiscoverX)) EUB0000618a ULK3; conditions: at 10 µM
T5 sequence (whole entry): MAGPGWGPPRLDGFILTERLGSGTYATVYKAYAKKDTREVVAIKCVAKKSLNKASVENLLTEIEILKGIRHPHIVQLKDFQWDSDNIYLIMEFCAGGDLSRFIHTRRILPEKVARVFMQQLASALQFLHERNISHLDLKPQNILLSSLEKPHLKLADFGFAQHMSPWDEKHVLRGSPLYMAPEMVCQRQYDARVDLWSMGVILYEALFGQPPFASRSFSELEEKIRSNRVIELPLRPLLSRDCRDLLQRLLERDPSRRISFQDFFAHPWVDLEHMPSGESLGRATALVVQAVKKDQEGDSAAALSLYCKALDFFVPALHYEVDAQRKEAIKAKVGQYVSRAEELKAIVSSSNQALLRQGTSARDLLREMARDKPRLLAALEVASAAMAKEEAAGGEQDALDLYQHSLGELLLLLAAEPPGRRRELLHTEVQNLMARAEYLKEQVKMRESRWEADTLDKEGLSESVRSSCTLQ

[15] = target: Ribosomal protein S6 kinase alpha-2 (Homo sapiens) (UniProt Q15349); assay: Selectivity interaction (ActivX KiNativ screen (ex vivo kinase selectivity in human PBMCs)) EUB0001619a RPS6KA2; assay type: cell-based; conditions: PBMC, at 1 µM
[16] = target: T3, Serine/threonine-protein kinase 26; conditions: at 1 µM

Sequence of Casein kinase I isoform delta (P48730 whole entry, looked up, canonical isoform): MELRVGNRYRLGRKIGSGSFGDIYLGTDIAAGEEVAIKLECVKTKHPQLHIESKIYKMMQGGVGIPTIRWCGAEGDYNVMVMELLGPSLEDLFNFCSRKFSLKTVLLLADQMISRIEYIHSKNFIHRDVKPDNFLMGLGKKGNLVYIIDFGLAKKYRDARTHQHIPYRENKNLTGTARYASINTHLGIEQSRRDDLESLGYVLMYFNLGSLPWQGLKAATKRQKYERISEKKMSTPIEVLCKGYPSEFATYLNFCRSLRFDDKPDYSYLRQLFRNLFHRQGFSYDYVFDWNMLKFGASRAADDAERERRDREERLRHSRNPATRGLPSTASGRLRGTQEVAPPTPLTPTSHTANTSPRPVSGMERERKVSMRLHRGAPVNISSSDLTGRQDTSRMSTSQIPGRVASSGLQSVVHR

For `CC(C)(O)[C@H](F)CN1Cc2cc(NC(=O)c3cnn4cccnc34)c(N3CCOCC3)cc2C1=O`, which dTM [1] is on record?
The dTM was 1.9 K.

`COc1cc(N(C)c2ccnc3ccc(C(F)(F)F)cc23)cc(OC)c1OC` was tested. Which % binding [2] did it give?
Its % binding is 98%.

For `Cc1ccc(-c2ccc3c(ccc4sc5c(c43)NC[C@@H](C)NC5=O)n2)cn1`, which % of inhibition [3] is on record?
Its % of inhibition is -8%.

`CN(C)CCOc1ccc(-c2nc(-c3ccncc3)c(-c3ccc4c(c3)CC/C4=N\O)[nH]2)cc1` was tested. Which % of control [4] did it give?
Its % of control is 76%.

Which % of control ([5]; at 1 µM) does the source give for `C=CC(=O)Nc1cccc(C(=O)Nc2ccc(Nc3cc(-c4[nH]c(SC)nc4C)ccn3)cc2)c1` here?
Its % of control is 94%.

What about the % of control ([5]; at 5 µM) of the same compound?
The % of control was 96%.

And the % of control ([6]; at 1 µM)?
Its % of control is 98%.

And the % of control ([6]; at 5 µM)?
Its % of control is 79%.

With `CN(C(=O)c1cnn2cccnc12)c1cc2c(cc1N1CCOCC1)C(=O)N(C[C@@H](F)C(C)(C)O)C2` as the compound, how does the dTM [7] read?
The dTM was 0.5 K.

How did the % of control [8] turn out when `O=C(NOC[C@H](O)CO)c1ccc(F)c(F)c1Nc1ccc(I)cc1F` was run?
Its % of control is 97%.

With `Cc1cc([C@@H](C)Nc2ccccc2C(=O)O)c2nc(N3CCOCC3)cc(=O)n2c1` [AZD-6482] as the compound, how does the % of control [9] read?
Its % of control is 91%.

How did the % of inhibition [10] turn out when `CC[C@@H]1[C@H](F)C(=O)N[C@@H]1COc1nccc2cc(C(N)=O)c(OC)cc12` [ZIMLOVISERTIB] was run?
Its % of inhibition is 18.6%.

For `Cc1cc(F)c(C(=O)Nc2cccc(-c3nncn3C(C)C)n2)cc1-n1cnc(C2CC2)c1`, which % of control [11] is on record?
The % of control was 100%.

For `COCC(=O)NC/C=C/c1ccc2ncnc(Nc3ccc(Oc4ccc(C)nc4)c(C)c3)c2c1` [CP-724714], which % of control [12] is on record?
The % of control was 17%.

With `O[C@H]1CC[C@H](Nc2ncc3nc(Nc4c(F)cc(F)cc4F)n([C@H]4CCOC4)c3n2)CC1` as the compound, how does the % of control [13] read?
Its % of control is 55%.

And the % of control [14]?
The % of control was 94%.

How did the % of inhibition [15] turn out when `N#Cc1cccc(-c2c[nH]c3ncnc(N4CCOCC4)c23)c1` was run?
Its % of inhibition is -3%.

What about the % of control [16] of the same compound?
Its % of control is 7%.
